Measurements: patent US9000015B2, “Compounds for the treatment of addiction” (Gilead Sciences, Inc., priority 2011, dated 2015)

Tests used:
recombinant human ALDH2 = recombinant human ALDH2 (Homo sapiens (Human), UniProt P05091); test: ALDH2 assay (NADH formation); assay type: biochemical; settings: 60 min pre-incubation, 150 uM formaldehyde, 2.5 mM NAD+; read-out: IC50 HALDH2
Procedure: Standard ALDH2 reaction mixtures contained 150 uM formaldehyde, 2.5 mM NAD^+, 10 mM MgCl2 and 10 nM recombinant human ALDH2 in 50 mM Hepes buffer, pH 7.4, 0.01% Tween 20 in a final volume of 50 ul using 384-well plates. After 60 min of pre-incubation of compound with ALDH2 and formaldehyde, the reaction was started by adding NAD+ and the reaction mixture was allowed to proceed for 90 minutes. Activity of the enzyme was determined by monitoring NADH formation using Perkin-Elmer Envision Reader with excitation and emission wavelengths set at 340 and 460 nm, respectively.
(§1) Note: […] refers to the concentration of a compound that inhibits a reaction by 50%. In the case of competitive inhibition, IC50=2Ki when the substrate is present at the Km concentration, as per the relationship: Ki=IC50/[1+(substrate concentration/Km)].

HMAO-B = HMAO-B (Homo sapiens (Human), UniProt P27338); test: MAO-B assay (luminogenic MAO substrate); assay type: biochemical; settings: microsome MAO-B, 16 uM substrate
Procedure: (§2) MAO assays included luminogenic MAO substrate, reaction buffers, Luciferin Detection and the reconstitution buffer with eserase. Standard MAO reaction mixtures included microsome contained MAO-A (2 ug) or MAO-B (10 ug), 160 uM substrate for MAO-A or 16 uM substrate for MAO-B, MAO-A buffer (100 mM Hepes buffer, pH 7.5, 5% glycerol) or MAO-B buffer (100 mM Hepes, pH 7.5, 5% glycerol, 10% dimethyl sulfoxide) in a final volume of 30 ul. After 20 minutes of pre-incubation of the enzyme with compounds, the reaction was initiated by adding enzyme substrate and the reaction was allowed to proceed for 60 minutes. Reconstituted Luciferin Detection Reagent (30 ul) was then added is added to simultaneously stop the MAO reaction and convert the methyl ester derivative to luciferin and produce light. The amount of light produced is directly proportional to the activity of MAO. The mixtures were further incubated for 20 minutes and activity of the enzyme was determined using Perkin-Elmer Envision Reader.
as §1

HMAO-A = HMAO-A (Homo sapiens (Human), UniProt P21397); test: MAO-A assay (luminogenic MAO substrate); assay type: biochemical; settings: microsome MAO-A, 160 uM substrate
Procedure: as §2, §1

Male SD rats = test: Rat nicotine self administration, acute treatment; assay type: in vivo; settings: 1 hr before session
Procedure: Male SD rats were trained to self administer i.v. nicotine (0.03 mg/kg/inj) daily (Monday to Friday) in standard operant chambers with retractable levers (MED Associates, Inc) as previously published (Levin et al., 2003; Levin et al., 2007). During the daily 45 min session, rats received 0.05 ml infusion of 0.03 mg/kg/infusion of nicotine every time the active lever was pressed. A cue light and tone turned on for 0.5 sec together with the activation of a pump that delivered the nicotine solution. Daily sessions were run for at least 10 days before the initiation of drug testing. Solutions of compounds of Example 2 and Example 5 were prepared fresh daily in Formulation 2B: 25% PEG400/5% Vit E TPGS/1% SLS/69% water with 0.5% Methocel) for oral dosing. Compound of Example 2 doses were administered in a counterbalanced design for testing 1 hr before each nicotine session. Every rat received all drug doses and vehicle in a randomly assigned order. The oral drug administrations were made twice per week.
Compound of Example 5 was tested in a study using 4 independent groups. Each group received either oral vehicle or 1 of the 3 doses of compound of Example 5 (5, 10 or 30 mg-eq/kg). […] The 5 mg/kg dose was ineffective.

[1] = system: male Sprague Dawley (SD) rats; test: Rat cocaine cue reinstatement; assay type: in vivo
Procedure: Training of male Sprague Dawley (SD) rats had 3 separate stages. First, during self administration, animals were trained to lever press for cocaine with presentation of concomitant cues associated with drug delivery. Rats that reached criteria for addiction were included in the study. Afterward, during cue extinction, cocaine-cue dependent behavior was extinguished. Lastly, during cocaine cue reinstatement, the effect of compounds was tested on lever presses upon cue presentation (FIG. 2).
Rats were trained to self administer i.v. cocaine (0.35 mg/kg/injection) daily (Monday to Friday) in standard operant chambers with retractable levers (Coulbourn Instruments, PA). During the daily 2 hr session, rats received a 0.05 ml infusion of 0.35 mg/kg cocaine every time the active lever was pressed. A cue light and tone turned on for 2 sec together with activation of a pump that delivered the cocaine solution. Rats were required to maintain an infusion rate of ≧20+ per day for at least 10 days before being moved to extinction training.
During extinction sessions lever presses no longer produced cocaine infusion and cue light/tone presentation was absent. Rats received a maximum of 15 extinction sessions.
On the next day after reaching extinction criteria, rats were treated orally with vehicle (Formulation 2B: 25% PEG400/5% Vit E TPGS/1% SLS/69% water with 0.5% Methocel) or drug (compound of Example 2 or compound of Example 5) before the cue reinstatement session. Cue reinstatement began with a tone and cue light. This 2 hr session was identical to the self-administration session (cue light and tone present upon active lever press) except that no cocaine was delivered. The number of active lever presses was compared to extinction lever responding. This is considered a measure of reinstatement. The next day, rats were returned to extinction sessions for at least 2 or 3 more sessions. Rats then received a second and last reinstatement session with an opposite treatment to the one received on the first reinstatement session (vehicle or drug treatment). […] The light/tone presentation triggers this response and it is interpreted as a measure of reinstatement even though cocaine is not available.

HMAO-B, sequence (P27338 whole entry): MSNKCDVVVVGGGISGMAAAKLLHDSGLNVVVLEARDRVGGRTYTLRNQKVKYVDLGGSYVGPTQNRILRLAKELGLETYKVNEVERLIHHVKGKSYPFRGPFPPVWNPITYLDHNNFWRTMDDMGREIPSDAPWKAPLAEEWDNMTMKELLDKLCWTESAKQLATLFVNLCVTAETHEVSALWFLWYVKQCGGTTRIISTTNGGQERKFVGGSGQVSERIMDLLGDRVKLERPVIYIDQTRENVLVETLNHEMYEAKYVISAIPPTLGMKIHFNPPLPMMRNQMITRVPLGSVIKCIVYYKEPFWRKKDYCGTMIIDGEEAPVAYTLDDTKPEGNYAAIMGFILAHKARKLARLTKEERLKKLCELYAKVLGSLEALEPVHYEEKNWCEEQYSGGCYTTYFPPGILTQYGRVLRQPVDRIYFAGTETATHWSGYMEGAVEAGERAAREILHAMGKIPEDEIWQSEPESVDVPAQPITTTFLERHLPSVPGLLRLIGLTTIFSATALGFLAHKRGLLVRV
HMAO-A, sequence (P21397 whole entry): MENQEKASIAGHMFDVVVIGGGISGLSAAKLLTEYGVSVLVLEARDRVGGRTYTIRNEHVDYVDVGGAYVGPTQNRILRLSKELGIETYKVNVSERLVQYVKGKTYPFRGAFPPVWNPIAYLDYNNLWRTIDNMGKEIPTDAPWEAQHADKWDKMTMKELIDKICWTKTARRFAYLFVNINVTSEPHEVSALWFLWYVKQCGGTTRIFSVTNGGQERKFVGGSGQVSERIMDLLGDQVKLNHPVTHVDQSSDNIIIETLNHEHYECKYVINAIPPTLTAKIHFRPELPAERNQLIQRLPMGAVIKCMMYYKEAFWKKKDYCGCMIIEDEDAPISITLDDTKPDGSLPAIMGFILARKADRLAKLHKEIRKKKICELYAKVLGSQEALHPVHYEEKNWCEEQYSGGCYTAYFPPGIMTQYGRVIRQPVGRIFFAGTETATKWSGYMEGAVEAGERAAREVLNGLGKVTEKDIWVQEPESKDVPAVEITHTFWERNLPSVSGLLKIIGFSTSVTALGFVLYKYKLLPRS
recombinant human ALDH2, sequence (P05091 18-517): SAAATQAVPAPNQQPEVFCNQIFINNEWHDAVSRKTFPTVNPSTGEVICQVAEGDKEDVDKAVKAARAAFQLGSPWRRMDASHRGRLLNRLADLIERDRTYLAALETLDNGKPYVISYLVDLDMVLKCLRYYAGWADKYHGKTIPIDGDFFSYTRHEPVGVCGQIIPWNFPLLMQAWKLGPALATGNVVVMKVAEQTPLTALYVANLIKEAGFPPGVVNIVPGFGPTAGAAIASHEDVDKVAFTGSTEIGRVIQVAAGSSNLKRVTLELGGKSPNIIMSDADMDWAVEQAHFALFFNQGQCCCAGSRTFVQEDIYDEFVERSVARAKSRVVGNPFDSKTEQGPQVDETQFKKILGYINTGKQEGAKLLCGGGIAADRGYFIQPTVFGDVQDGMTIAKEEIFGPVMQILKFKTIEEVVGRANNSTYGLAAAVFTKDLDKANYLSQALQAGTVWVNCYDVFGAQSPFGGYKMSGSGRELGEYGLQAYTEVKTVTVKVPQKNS

IC50 (recombinant human ALDH2)	IC50 (HMAO-B)	IC50 (HMAO-A)	Compound	also measured
0.063 µM	> 130 µM	> 130 µM	COCCOc1cc(Cl)c(C(=O)NCc2ccc(-c3cc[nH]c(=O)c3)cc2)c(Cl)c1 [Compound 1, 2,6-dichloro-4-(2-methoxyethoxy)-N-(4-(2-oxo-1,2-dihydropyridin-4-yl)benzyl)benzamide]	–
0.215 µM	> 130 µM	> 130 µM	O=C(NCc1ccc(-c2cc[nH]c(=O)c2)cc1)c1cccc(F)c1Cl [Compound 3, 2-chloro-3-fluoro-N-(4-(2-oxo-1,2-dihydropyridin-4-yl)benzyl)benzamide]	–
0.023 µM	> 130 µM	> 130 µM	Cc1cccc(Cl)c1C(=O)NCc1ccc(-c2cc[nH]c(=O)c2)cc1 [Compound 4, 2-chloro-6-methyl-N-(4-(2-oxo-1,2-dihydropyridin-4-yl)benzyl)benzamide]	–
0.166 µM	> 130 µM	> 130 µM	Cc1cccc(C)c1C(=O)NCc1ccc(-c2cc[nH]c(=O)c2)cc1 [Compound 5, 2,6-dimethyl-N-(4-(2-oxo-1,2-dihydropyridin-4-yl)benzyl)benzamide]	–
1.11 µM	> 130 µM	> 130 µM	Cc1cc(-c2ccc(CNC(=O)c3c(Cl)cccc3Cl)cc2)cc(=O)[nH]1 [Compound 6, 2,6-dichloro-N-[4-(6-methyl-2-oxo-1,2-dihydro-pyridin-4-yl)-benzyl]-benzamide]	–
0.48 µM	> 130 µM	> 130 µM	Cc1cc(CNC(=O)c2c(Cl)cccc2Cl)ccc1-c1cc[nH]c(=O)c1 [Compound 8, 2,6-dichloro-N-(3-methyl-4-(2-oxo-1,2-dihydropyridin-4-yl)benzyl)benzamide]	–
2.09 µM	> 130 µM	> 130 µM	Cn1ccc(-c2ccc(CNC(=O)c3c(Cl)cccc3Cl)cc2)cc1=O [Compound 9, 2,6-dichloro-N-(4-(1-methyl-2-oxo-1,2-dihydropyridin-4-yl)benzyl)benzamide]	–
0.89 µM	> 130 µM	> 130 µM	O=C(NCc1ccc(-c2cc[nH]c(=O)c2)cc1)c1c(F)cccc1F [Compound 10, 2,6-difluoro-N-(4-(2-oxo-1,2-dihydropyridin-4-yl)benzyl)benzamide]	–
0.379 µM	> 130 µM	> 130 µM	O=C(NCc1ccc(-c2cc[nH]c(=O)c2)cc1)c1c(F)cccc1Cl [Compound 11, 2-chloro-6-fluoro-N-(4-(2-oxo-1,2-dihydropyridin-4-yl)benzyl)benzamide]	–
0.304 µM	> 130 µM	> 130 µM	O=C(NCc1ccc(-c2cc[nH]c(=O)c2)cc1F)c1c(Cl)cccc1Cl [Compound 12, 2,6-dichloro-N-(2-fluoro-4-(2-oxo-1,2-dihydropyridin-4-yl)benzyl)benzamide]	–
0.025 µM	> 130 µM	> 130 µM	O=C(NCc1ccc(-c2cc(=O)[nH]cc2F)cc1)c1c(Cl)cccc1Cl [Compound 13, 2,6-dichloro-N-(4-(5-fluoro-2-oxo-1,2-dihydropyridin-4-yl)benzyl)benzamide]	–

Compound	IC50 (recombinant human ALDH2)	IC50 (HMAO-B)	IC50 (HMAO-A)	also measured
O=C(NCc1ccc(-c2cc[nH]c(=O)c2)cc1)c1c(Cl)cccc1Cl [Compound 2, 2,6-dichloro-N-[4-(2-oxo-1,2-dihydro-pyridin-4-yl)-benzyl]-benzamide]	0.102 µM	> 130 µM	> 130 µM	effect on number of nicotine infusions compared to vehicle (Male SD rats; 1 mg/kg oral): without effect; effect on number of nicotine infusions compared to vehicle (Male SD rats; 5 mg/kg oral): without effect; inhibition of number of nicotine infusions compared to vehicle (Male SD rats; 10 mg/kg oral): 26%; inhibition of number of nicotine infusions compared to vehicle (Male SD rats; 30 mg/kg oral): 28%; inhibition of number of nicotine infusions compared to vehicle (Male SD rats; 60 mg/kg oral): 31%; reduction of cocaine cue-induced reinstatement (lever presses) compared to vehicle ([1]; 5 mg/kg oral): 69%; reduction of cocaine cue-induced reinstatement (lever presses) compared to vehicle ([1]; 10 mg/kg oral): 72%; reduction of cocaine cue-induced reinstatement (lever presses) compared to vehicle ([1]; 30 mg/kg oral): 86%
O=C(NCc1ccc(-c2cc[nH]c(=O)c2)cc1)c1c(F)ccc(F)c1Cl [Compound 7, 2-chloro-3,6-difluoro-N-(4-(2-oxo-1,2-dihydropyridin-4-yl)benzyl)benzamide]	0.464 µM	> 130 µM	> 130 µM	–
